According to ChEMBL document CHEMBL1121864, “Diterpenoid sweeteners. Synthesis and sensory evaluation of stevioside analogues nondegradable to steviol” (J Med Chem, 1981):

Assay: Acute toxicity in mice after oral administration
Details: mouse, in vivo

For `C=C1C[C@@]23CC[C@H]4[C@@](C)(CCC[C@@]4(C)C(=O)O[C@@H]4O[C@H](CO)[C@@H](O)[C@H](O)[C@H]4O)[C@@H]2CC[C@]1(O[C@@H]1O[C@H](CO)[C@@H](O)[C@H](O)[C@H]1O[C@@H]1O[C@H](CO)[C@@H](O)[C@H](O)[C@H]1O)C3` [STEVIOSIDE], the LD50 was > 8200 mg/kg and the LD50 (read-out: LD50) was > 15000 mg/kg.
